The results in this text go back to US8557272B2, “Device for local and/or regional delivery employing liquid formulations of therapeutic agents” (Cordis Corporation, priority 2004, dated 2013).

A short description of assay [1]: MVP randomized clinical trial, angiographic and clinical outcome. In kind it is in vivo, human. Particulars: probucol given alone, compared to placebo. An excerpt:
It was not possible to determine with angiography alone whether probucol acted via inhibition of tissue hyperplasia or improvement in vascular remodeling. […] In addition, the invention enables the skilled practitioner to use probucol in conjunction with other percutaneous coronary interventions such as stenting if it is deemed appropriate.
The present invention concerns the IVUS substudy from the MVP restenosis trial. MVP was a double-blind placebo-controlled randomized clinical trial with four study groups. The protocol was approved by the Montreal Heart Institute institutional review board. The MVP study design, inclusion and exclusion criteria have been previously described (N Engl J Med 1997; 365-372). Briefly, patients referred for elective coronary angioplasty were evaluated at least 30 days prior to their scheduled procedure. Eligible patients were asked to provide written informed consent. Patients were eligible if they were scheduled to undergo standard balloon angioplasty on at least one native coronary artery and had at least one de novo target lesion with luminal narrowing of fifty percent or more by caliper measurements.
Beginning thirty days prior to scheduled angioplasty, patients were randomly assigned to receive either probucol alone, multivitamins alone, the combination of probucol and multivitamins, or placebo. Probucol 500 mg or matched placebo was administered twice daily. The multivitamin complex, consisting of vitamin E 700 IU, vitamin C 500 mg and beta-carotene 30,000 IU, or matched placebo was also administered in one tablet twice daily. […] The sequence of contrast injections with the exact degree of angulation was recorded and used for every angiogram. Coronary arteriograms (pre-, post-procedure, and final follow-up) were analyzed together using the Coronary Measurement System (CMS), as previously reported. […] Patients were readmitted for follow-up coronary angiography at five to seven months. […]

The nature of assay [2]: MVP IVUS substudy after balloon angioplasty. It counts as in vivo, human. From the text: Serial intravascular ultrasound (IVUS) examinations have been performed in a consecutive series of patients involved in the MVP trial. By providing tomographic views of coronary arteries with high resolution, IVUS allows quantitative assessment of changes in arterial lumen and wall dimensions. We were therefore able in this study to determine the pathophysiology of coronary restenosis after balloon angioplasty in patients systematically undergoing follow-up IVUS examination and determine the effect of probucol on tissue hyperplasia and vascular remodeling after coronary angioplasty. The present invention concerns the IVUS substudy from the MVP restenosis trial. […] Briefly, patients referred for elective coronary angioplasty were evaluated at least 30 days prior to their scheduled procedure. […] The sequence of contrast injections with the exact degree of angulation was recorded and used for every angiogram. Coronary arteriograms (pre-, post-procedure, and final follow-up) were analyzed together using the Coronary Measurement System (CMS), as previously reported. […] Patients were readmitted for follow-up coronary angiography at five to seven months. […] IVUS imaging was monitored by an experienced cardiologist, but the angioplasty operator was blinded to ultrasound results to avoid altering standard balloon angioplasty practice. […]

In assay [3] the test system is LDL. Nature of the assay: LDL peroxidation lag phase ex vivo (diene conjugates after copper ions). Particulars: treatment for one month; preliminary results. Set-up: species or system human. From the text: Dietary intervention and smoking habits were similar in all groups. Probucol may simply be a more powerful antioxidant than the combination of vitamins. To this regard, preliminary results from the continuous spectrophotometric monitoring of diene conjugates in LDL after the addition of copper ions to the isolated lipoprotein ex vivo (Free Radic Res Commun 1989; 6:67-75) of MVP patients are noteworthy.

Consider `CC(C)(Sc1cc(C(C)(C)C)c(O)c(C(C)(C)C)c1)Sc1cc(C(C)(C)C)c(O)c(C(C)(C)C)c1` [probucol, 4,4′-([1-methylethylidene)bis(thio)]bis-[2,6-bis(1,1-dimethylethyl)phenol]], for which, in assay [1], the “reduction of angiographic lumen loss” value is “sixty-eight percent”, the “reduction of restenosis rate per segment” value is listed as “forty-seven percent” and the “reduction of the need for repeat angioplasty at 6 month” value is listed as “fifty-eight percent”. In addition, in assay [2] (compared to non-probucol treated patients), the “reduction in lumen loss assessed by IVUS” value was 0.79 mm^2. Also, the “reduction in lumen loss assessed by IVUS” value in assay [2] (probucol given alone compared to the placebo group only) turned out to be 1.06 mm^2. The “protection against LDL oxidation (lag phase for LDL peroxidation)” value in assay [3] is “significantly greater protection against LDL oxidation than vitamins alone or the combination of probucol and vitamins”.
